Reference: patent publication US9950048B2, “Immunogenic epitopes for immunotherapy” (immatics biotechnologies GmbH, priority 2007, dated 2018)
Ends that are not written are not given here.

How the values were obtained:
[1] = Particle size/shape measurement and analytical HPLC of reconstituted IMA910 suspension; assay type: physicochemical; conditions: sodium hydrogen carbonate (4.2%)
Description: Particle size distribution and particle shape measurement of the particles obtained after reconstitution have been performed by capturing direct images of each individual particle in the range of 0.25 to 100 μm followed by image analysis.
Furthermore, analytical HPLC was performed for a closer characterization of the obtained suspension.
IMA910 is dissolved in 700 μL sodium hydrogen carbonate (4.2%).

HLA-A*0201 = HLA-A*0201 (Homo sapiens, UniProt P04439, D140Y/D185E/D98H/E176V/E277Q/G131W/G231S/I119V/I121R/I166T/I218V/L300P/L318F/N151K/N90K/P208A/P217A/Q86G/Q94H/R138H/R169H/T345S); test: HLA-A*0201 binding assay, ELISA EpI Kit (Example 4); conditions: for binding affinity to HLA-A*0201 (KD), in words: FIG. 4, lower KD = higher affinity
Description: FIG. 4 depicts binding affinities of selected peptides to HLA-A*0201 as measured by EpI ELISA according to Sylvester-Hvid, C, et al., 2002, Tissue Antigens, 59, 251-258). The analysis was limited to peptides known to be MHC class I binding peptides. Affinities of HLA-DR binding peptides cannot be measured with this assay.
The HLA binding assay was performed using the ELISA EpI Kit (obtained from Sceren Buus, Institute of Medical Microbiology and Immunology at the University of Copenhagen, Denmark) according to Sylvester-Hvid (Sylvester-Hvid, at al., 2002, Tissue Antigens, 59, 251-258) and the ELISA EpI Kit manual by the manufacturer.
Peptides were dissolved in DMSO+0.5% TFA (Merck, Darmstadt, Germany) at a concentration of 10 mg/ml. The highest peptide working solution used in this assay was 200 μM, therefore the stock solution was diluted 1:50 in a peptide-dilution buffer (PBS with 0.1% Lutrol-F68 and 10 mg/1 Phenol red) to a final volume of 100 μl. A serial five-fold dilution was performed with peptide-dilution buffer.
According to the manual, a 2-fold concentrated HLA-A*0201 solution was prepared by mixing 3×pH buffer (pH 6.6), Lutrol-F68, human β2m, recombinant HLA-A*0201 (all included in the ELISA EpI Kit) with PBS.
For the refolding process, 15 μl of peptide serial dilutions and 15 μl of the 2-fold concentrated MHC mix were mixed in 96-well plates (Nunc, Rochester, N.Y., USA) and incubated at 18° C. for 48 hours.
Maxisorp plates (Nunc, Rochester, N.Y.) were coated with 5 μg/ml w6/32 antibody in coating buffer (pH 9.6), incubated for 24 h at 4° C. and blocked with 5% skim milk powder (Merck, Darmstadt, Germany) in PBS over night at 4° C.
MHC complex standard (ELISA EpI Kit) was diluted with 2% skim milk powder in PBS (SMP/PBS) to a concentration of 10 nM. A serial 3.16-fold dilution was prepared and transferred to the coated and blocked Maxisorp plate. […] Plates were read at OD450 nm using the VERSAmax ELISA-Reader (Molecular Devices, Sunnyvale, Calif., USA). […]

[2] = test system: sorted CD8+ NOX-001 tetramer+ T-cell line; test: IFNγ ELISPOT functionality test of sorted specific CD8+ T-cell line; assay type: cell-based, human; conditions: FIG. 8
Description: FIGS. 8A and 8B depict the ELISPOT analysis of IFNγ production by T-cell lines upon in vitro restimulation with the NOX-001 peptide. FIG. 8A is T-cell line 7+ from donor HBC-154 (sorted CD8+ NOX-001 tetramer+). FIG. 8B is T-cell line 7—from donor HBC-154 (sorted CD8+ NOX-001 tetramer+).
Sorted CD8+ NOX-001 tetramer+(A.) and CD8+ NOX-001 tetramer-(B.) cells were analysed by IFNγ ELISPOT after restimulation with irrelevant (MLA-001) (upper wells) and relevant (NOX-001) (lower wells) peptide (10 μg/ml). Numbers indicate the count of positive spots.
To determine their functionality, IFNγ production was assessed by ELISPOT (IFNγ ELISPOT Set, BD, Germany) after restimulation of the cells with the corresponding peptide. Additionally, cell-mediated cytotoxicity of specific CTLs was investigated by killing of tumor cell lines using the LIVE/DEAD cell-mediated cytotoxicity Kit (L7010, Invitrogen, Germany). Both assays were performed according to manufacturer's instructions, except noted otherwise.

Sequence	solubility in the solution used for reconstitution of IMA910 [1]	fold lower KD value compared with the majority of peptides (HLA-A*0201; FIG. 4) [fold]	binding affinity to HLA-A*0201 (KD), in words (HLA-A*0201)	IFNγ production of T-cell line after restimulation with peptide [2]
ALFVRLLALA [TGFBI-001]	almost insoluble	100	strongest binder	–
ILAPVILYI [NOX-001]	almost insoluble	–	slightly higher binding affinity	specifically expressing IFNγ after restimulation with this peptide
